Data: ChEMBL document CHEMBL3045657, “Synthesis and biological evaluation of naphthalene, furan and pyrrole based chalcones as cytotoxic and antimicrobial agents” (2012)
Values after ≈ are worked out from the molar mass of the structure shown. Active and inactive are the calls of the source. The calls are words filed in the database; no cut-off is given here.

Tests used:
Assay type in all cases: functional
Bacillus subtilis = test: Antibacterial activity against Bacillus subtilis MTCC 2451 after 24 hr by serial tube dilution method; conditions: MTCC 2451, 24 h
OVCAR = test: Cytotoxicity against Homo sapiens (human) OVCAR cells assessed as cell growth inhibition at 1 x 10^-5 M after 48 hr by SRB assay
Candida albicans = test: Antifungal activity against Candida albicans MTCC 3018 after 48 hr by serial tube dilution method; conditions: MTCC 3018, 48 h
IMR-32 = test: Cytotoxicity against Homo sapiens (human) IMR32 cells assessed as cell growth inhibition at 1 x 10^-5 M after 48 hr by SRB assay
PC-3 = test: Cytotoxicity against Homo sapiens (human) PC3 cells assessed as cell growth inhibition at 1 x 10^-5 M after 48 hr by SRB assay; conditions: PC-3, 48 h, read-out: GI
HEp-2 = test: Cytotoxicity against Homo sapiens (human) Hep2 cells assessed as cell growth inhibition at 1 x 10^-5 M after 48 hr by SRB assay; conditions: HEp-2, 48 h, read-out: GI
Staphylococcus aureus = test: Antibacterial activity against Staphylococcus aureus MTCC 96 after 24 hr by serial tube dilution method; conditions: MTCC 96, 24 h
Aspergillus niger = test: Antifungal activity against Aspergillus niger MTCC 1344 after 48 hr by serial tube dilution method; conditions: MTCC 1344, 48 h
Escherichia coli = test: Antibacterial activity against Escherichia coli MTCC 82 after 24 hr by serial tube dilution method; conditions: MTCC 82, 24 h
Pseudomonas aeruginosa = test: Antibacterial activity against Pseudomonas aeruginosa MTCC 2642 after 24 hr by serial tube dilution method; conditions: MTCC 2642, 24 h
Salmonella typhi = test: Antibacterial activity against Salmonella enterica subsp. enterica serovar Typhi MTCC 1251 after 24 hr by serial tube dilution method; conditions: MTCC 1251, 24 h

O=C(/C=C/c1cccc(Cl)c1Cl)c1ccc[nH]1
MIC (Bacillus subtilis): 31.2 µg/mL (≈ 117 µM)
growth inhibition (GI) (OVCAR): inactive
MIC (Candida albicans): 250 µg/mL (≈ 939 µM)
growth inhibition (GI) (IMR-32): inactive
inhibition of growth at 10 µM (PC-3): 11%
inhibition of growth at 10 µM (HEp-2): 15%
MIC (Staphylococcus aureus): 7.8 µg/mL (≈ 29.3 µM)
MIC (Aspergillus niger): 125 µg/mL (≈ 470 µM)
MIC (Escherichia coli): 15.6 µg/mL (≈ 58.6 µM)
MIC (Pseudomonas aeruginosa): 7.8 µg/mL (≈ 29.3 µM)
MIC (Salmonella typhi): 15.6 µg/mL (≈ 58.6 µM)
